The record followed here is patent US20240300927A1, “AMIDES AS CBL-B INHIBITORS” (Genentech, Inc., priority 2021, published 2024).

One data set addresses Cbl-b (Homo sapiens (Human), UniProt Q13191). The experiment in a line: Cbl-b LCK Ub TR-FRET assay (Cbl-b Lck HTRF). The format is biochemical. The method, boiled down:
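Biotin-Cbl-b (16 nM) or biotin-c-Cbl (12 nM) at 2× preincubated with compound 60 min, then His-LCK (120 nM), 1 mM ATP and MgCl2 (2× mix) added for 90 min at RT. Buffer: HEPES pH 7.0, DTT. UBE2D2–HA-ubiquitin transfer read by TR-FRET (665/615 nm); IC50 versus no-LCK and DMSO controls, 10-point dilutions.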

For data set [1], the target named is Human Cbl-b (residues 40-426) (Homo sapiens (Human), UniProt Q13191). Kind of data set: Cbl-b SPR assay (incl. multi-point chaser variation). The format is binding. How it is done: Affinity of binding to Cbl-b and c-Cbl for compounds described herein can be assessed by surface plasmon resonance (SPR) according to the following protocol. All experiments were recorded on a Biacore™ 8K or Biacore™ 8K+ (Cytiva) with both surface preparation and experimental measurements performed at 20° C. in an assay buffer consisting of 50 mM HEPES, pH 7.5, 0.15 M NaCl, 0.001% (v/v) Tween® 20, 0.2 mM tris(2-carboxyethyl)phosphine, 0.025% (w/v) carboxymethylated dextran (average MW 10 kDa), 0.2% (w/v) PEG 3350, and 2% DMSO. […]
Human Cbl-b (residues 40-426), sequence (Q13191 40-426): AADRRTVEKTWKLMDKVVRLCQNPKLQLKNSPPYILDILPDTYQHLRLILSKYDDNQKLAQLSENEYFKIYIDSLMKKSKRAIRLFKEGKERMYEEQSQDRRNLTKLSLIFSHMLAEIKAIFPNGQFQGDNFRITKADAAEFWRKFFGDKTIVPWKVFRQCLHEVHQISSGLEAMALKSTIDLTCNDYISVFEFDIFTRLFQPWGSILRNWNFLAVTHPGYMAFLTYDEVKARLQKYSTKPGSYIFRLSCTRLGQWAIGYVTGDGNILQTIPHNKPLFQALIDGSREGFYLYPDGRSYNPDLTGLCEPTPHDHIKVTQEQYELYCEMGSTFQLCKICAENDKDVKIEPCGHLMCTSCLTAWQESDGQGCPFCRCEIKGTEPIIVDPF
For SPR measurements, 6 concentrations with 2 fold serial dilution were measured with blanks flanking each series for double referencing. […] SPR sensorgrams were recorded in multi-cycle kinetics format, with a contact time of 60 seconds and a flow rate of 40 μl/min, the dissociation time was varied between 120-1200 seconds aiming for 4-5 half-lives of the measured interaction. […]
In the case of potent compounds, the protein-compound half-life cannot be accurately measured using routine fitting of the single cycle titration data. The kd is measured independently by determining the percentage unoccupied compound binding site over time by measuring the binding of a chaser compound measured by SPR.
Chaser binding was measured by a multicycle kinetics SPR experiment using a contact time of 20 seconds, a flow rate of […], and a dissociation time of 120 seconds. […]

A short description of data set [2]: In vitro plasma protein binding, mouse. The format is in vitro ADME. Conditions: pooled mouse plasma, read-out: PPB % (H/R/M) (converted). How it is done:
In vitro plasma protein binding (n=2) was determined in pooled mouse, rat, and human plasma (Bioreclamation, Inc., Hicksville, NY) by equilibrium dialysis using a Rapid Equilibrium Dialysis (RED) device (Pierce Biotechnology/Thermo Fisher Scientific; Rockford, IL) with a molecular weight cut-off of 8000 Daltons. Test compounds were added to plasma. Plasma samples were equilibriated with phosphate-buffered saline at 37° C. for 4 hours. Compound concentrations in post-dialysis plasma and buffer samples were measured by LC-MS/MS. The percent unbound fraction in plasma for each compound was calculated by dividing the compound concentration in the post-dialysis buffer by that measured in the post-dialysis plasma and multiplying by 100%.

Data set [3] in a line: Liver microsomes metabolic stability, human. The format is in vitro ADME. Background: Liver microsomes are vesicles of endoplasmic reticulum, rich in cytochrome P450 enzymes.
A short description of the next data set: Mouse PK. The format is in vivo.
The next data set is described as follows: LogD. The format is physicochemical.

pIC50, pKd: −log10 of the molar value. Read-outs that look alike come from different tables or passages of the source.

Cbl-b, sequence (Q13191 40-426): as above

As usually defined, the pIC50 is the negative decadic logarithm of the IC50, by convention in mol/L. As a reminder, the pKd is −log10 of the Kd, conventionally taken in molar units. One may read the logD as lipophilicity at a set pH, counting ionised and neutral species. Lower therefore signals a more hydrophilic compound. For `CC(C)[C@H]1CN(C)CCN1Cc1cc(C(=O)Nc2cccc(C3(Cc4nncn4C)CC(F)(F)C3)c2)nc(C2CC2)c1` [Compound 224, (S)-6-cyclopropyl-N-(3-(3,3-difluoro-1-((4-methyl-4H-1,2,4-triazol-3-yl)methyl)cyclobutyl)phenyl)-4-((2-isopropyl-4-methylpiperazin-1-yl)methyl)picolinamide], the “(fold-selectivity)” value on Cbl-b (Cbl-b and C-Cbl selectivity, Lck HTRF) is “(0.66x)”. For the same compound, the pIC50 at Cbl-b (Table 4 comparative data, read-out: Lck IC50) was 8.12; on Cbl-b (read-out: Cbl-b Lck HTRF IC50), 8.12. For the same compound, the “Lck IC50 (select.)” value on Cbl-b (selectivity, Table 4) worked out at 0.68 x. In addition, the pKd in data set [1] (read-out: SPR Kd kin) is 8.25. The “SPR Kd kin (select.)” value in data set [1] (selectivity) is reported as 1.3 x. Besides, in data set [2], the fraction unbound at 4 h was 0.06. Further, the “LM (H/R/M/D/C)” value in data set [3] was 18. Moreover, the “Mouse PK unbound CLp” value in the data set “Mouse PK” was “(unbound CLp 683)”. For the same compound, the clearance in the data set “Mouse PK” (plasma, intravenous, read-out: Mouse PK CLp) came out at 41 mL/min/kg. In “Mouse PK” (plasma, oral, read-out: Mouse PK F %), the bioavailability was 3.4%. In addition, the logD in the data set “LogD” worked out at 2.2.
